Test system: 519858-162-T-J1-PDC complex spheroid growth, % test/control
Experiment: Anticancer human tumor 519858-162-T-J1-PDC patient-derived colon adenocarcinoma cell line growth inhibition [Asc]
Conditions: for IC50: curve of first compound; for viability, T/C: stronger effect = lower value
In short: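 Stromal components (HUVEC and hMSC) are co-assembled with the cancer cells into multicellular spheroids. Drugs are then added singly or paired, at concentrations falling by half-log increments from a clinically achievable maximum, capped at 10 microM without known Cmax.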

[1] = second compound 0.00316 µM, first compound 0.0316 µM
[2] = second compound 0.00316 µM, first compound 0.1 µM
[3] = second compound 0.00316 µM, first compound 0.316 µM
[4] = second compound 0.00316 µM, first compound 1 µM
[5] = second compound 0.01 µM, first compound 0.0316 µM
[6] = second compound 0.01 µM, first compound 0.1 µM
[7] = second compound 0.01 µM, first compound 0.316 µM
[8] = second compound 0.01 µM, first compound 1 µM
[9] = second compound 0.0316 µM, first compound 0.0316 µM
[10] = second compound 0.0316 µM, first compound 0.1 µM
[11] = second compound 0.0316 µM, first compound 0.316 µM
[12] = second compound 0.0316 µM, first compound 1 µM
[13] = second compound 0.1 µM, first compound 0.0316 µM
[14] = second compound 0.1 µM, first compound 0.1 µM
[15] = second compound 0.1 µM, first compound 0.316 µM
[16] = second compound 0.1 µM, first compound 1 µM
[17] = second compound 0.316 µM, first compound 0.0316 µM
[18] = second compound 0.316 µM, first compound 0.1 µM
[19] = second compound 0.316 µM, first compound 0.316 µM
[20] = second compound 0.316 µM, first compound 1 µM
[21] = second compound 1 µM, first compound 0.0316 µM
[22] = second compound 1 µM, first compound 0.1 µM
[23] = second compound 1 µM, first compound 0.316 µM
[24] = second compound 1 µM, first compound 1 µM
[25] = second compound 0.00316 µM, first compound 0.00316 µM
[26] = second compound 0.00316 µM, first compound 0.01 µM
[27] = second compound 0.01 µM, first compound 0.00316 µM
[28] = second compound 0.01 µM, first compound 0.01 µM
[29] = second compound 0.0316 µM, first compound 0.00316 µM
[30] = second compound 0.0316 µM, first compound 0.01 µM
[31] = second compound 0.1 µM, first compound 0.00316 µM
[32] = second compound 0.1 µM, first compound 0.01 µM
[33] = second compound 0.316 µM, first compound 0.00316 µM
[34] = second compound 0.316 µM, first compound 0.01 µM
[35] = second compound 1 µM, first compound 0.00316 µM
[36] = second compound 1 µM, first compound 0.01 µM
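Further: seven day drug exposure begun three days after spheroid seeding.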
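Wherever viability, T/C is given: 100% = DMSO vehicle wells and lower values mean less viable spheroid.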

C=CC(=O)N1CCN(c2nc(=O)n(-c3c(C)ccnc3C(C)C)c3nc(-c4c(O)cccc4F)c(F)cc23)C(C)C1 (stereo unspecified) + CNC(C)C(=O)NC1CN(S(=O)(=O)c2cccc(S(=O)(=O)N3CCC4CCC(C(=O)NC(c5ccccc5)c5ccccc5)N4C(=O)C(NC(=O)C(C)NC)C3)c2)CCC2CCC(C(=O)NC(c3ccccc3)c3ccccc3)N2C1=O
IC50 (second compound 0.00316 µM): > 10000 nM | IC50 (second compound 0.01 µM): > 10000 nM | IC50 (second compound 0.0316 µM): > 10000 nM | IC50 (second compound 0.1 µM): > 10000 nM | IC50 (second compound 0.316 µM): > 10000 nM | IC50 (second compound 1 µM): > 10000 nM | viability, T/C [1]: 125% | viability, T/C [2]: 106% | viability, T/C [3]: 98.9% | viability, T/C [4]: 75.7% | viability, T/C (second compound 0.00316 µM, first compound 3.16 µM): 88.3% | viability, T/C (second compound 0.00316 µM, first compound 10 µM): 89.6% | viability, T/C [5]: 113% | viability, T/C [6]: 84% | viability, T/C [7]: 101% | viability, T/C [8]: 76.1% | viability, T/C (second compound 0.01 µM, first compound 3.16 µM): 85.8% | viability, T/C (second compound 0.01 µM, first compound 10 µM): 92.4% | viability, T/C [9]: 104% | viability, T/C [10]: 95.4% | viability, T/C [11]: 109% | viability, T/C [12]: 79.1% | viability, T/C (second compound 0.0316 µM, first compound 3.16 µM): 101% | viability, T/C (second compound 0.0316 µM, first compound 10 µM): 90.8% | viability, T/C [13]: 77.9% | viability, T/C [14]: 80% | viability, T/C [15]: 103% | viability, T/C [16]: 90.4% | viability, T/C (second compound 0.1 µM, first compound 3.16 µM): 77.9% | viability, T/C (second compound 0.1 µM, first compound 10 µM): 80.4% | viability, T/C [17]: 85.2% | viability, T/C [18]: 94.9% | viability, T/C [19]: 95.4% | viability, T/C [20]: 89.2% | viability, T/C (second compound 0.316 µM, first compound 3.16 µM): 90.5% | viability, T/C (second compound 0.316 µM, first compound 10 µM): 98.4% | viability, T/C [21]: 89.7% | viability, T/C [22]: 90.3% | viability, T/C [23]: 80.3% | viability, T/C [24]: 82% | viability, T/C (second compound 1 µM, first compound 3.16 µM): 91.1% | viability, T/C (second compound 1 µM, first compound 10 µM): 88%

COc1c(OCCCN2CCOCC2)ccc2c3n(c(=NC(=O)c4cnc(N)nc4)nc12)CCN3 + CNC(C)C(=O)NC1CN(S(=O)(=O)c2cccc(S(=O)(=O)N3CCC4CCC(C(=O)NC(c5ccccc5)c5ccccc5)N4C(=O)C(NC(=O)C(C)NC)C3)c2)CCC2CCC(C(=O)NC(c3ccccc3)c3ccccc3)N2C1=O
IC50 (second compound 0.00316 µM): 320 nM | IC50 (second compound 0.01 µM): 162 nM | IC50 (second compound 0.0316 µM): 156 nM | IC50 (second compound 0.1 µM): 132 nM | IC50 (second compound 0.316 µM): 237 nM | IC50 (second compound 1 µM): 259 nM | viability, T/C [25]: 78.1% | viability, T/C [26]: 61% | viability, T/C [1]: 68.8% | viability, T/C [2]: 65.4% | viability, T/C [3]: 48.8% | viability, T/C [4]: 27.9% | viability, T/C [27]: 83.3% | viability, T/C [28]: 89.9% | viability, T/C [5]: 85.4% | viability, T/C [6]: 53.9% | viability, T/C [7]: 53.1% | viability, T/C [8]: 34.4% | viability, T/C [29]: 82.7% | viability, T/C [30]: 78.9% | viability, T/C [9]: 67% | viability, T/C [10]: 54.9% | viability, T/C [11]: 42.1% | viability, T/C [12]: 27.6% | viability, T/C [31]: 86.5% | viability, T/C [32]: 68.2% | viability, T/C [13]: 56.9% | viability, T/C [14]: 62.5% | viability, T/C [15]: 37.1% | viability, T/C [16]: 39.1% | viability, T/C [33]: 72.5% | viability, T/C [34]: 88.5% | viability, T/C [17]: 78.3% | viability, T/C [18]: 65.9% | viability, T/C [19]: 45.1% | viability, T/C [20]: 36.4% | viability, T/C [35]: 84.4% | viability, T/C [36]: 64.9% | viability, T/C [21]: 83.7% | viability, T/C [22]: 48.3% | viability, T/C [23]: 53.6% | viability, T/C [24]: 32%

NC1CCC(NC2CC2c2ccccc2)CC1 (stereo unspecified) + CNC(C)C(=O)NC1CN(S(=O)(=O)c2cccc(S(=O)(=O)N3CCC4CCC(C(=O)NC(c5ccccc5)c5ccccc5)N4C(=O)C(NC(=O)C(C)NC)C3)c2)CCC2CCC(C(=O)NC(c3ccccc3)c3ccccc3)N2C1=O
IC50 (second compound 0.00316 µM): > 100 nM | IC50 (second compound 0.01 µM): > 100 nM | IC50 (second compound 0.0316 µM): > 100 nM | IC50 (second compound 0.1 µM): > 100 nM | IC50 (second compound 0.316 µM): > 100 nM | IC50 (second compound 1 µM): > 100 nM | viability, T/C (second compound 0.00316 µM, first compound 0.000316 µM): 106% | viability, T/C (second compound 0.00316 µM, first compound 0.001 µM): 90.1% | viability, T/C [25]: 117% | viability, T/C [26]: 112% | viability, T/C [1]: 92.4% | viability, T/C [2]: 85.3% | viability, T/C (second compound 0.01 µM, first compound 0.000316 µM): 129% | viability, T/C (second compound 0.01 µM, first compound 0.001 µM): 83.7% | viability, T/C [27]: 112% | viability, T/C [28]: 88.5% | viability, T/C [5]: 109% | viability, T/C [6]: 106% | viability, T/C (second compound 0.0316 µM, first compound 0.000316 µM): 89% | viability, T/C (second compound 0.0316 µM, first compound 0.001 µM): 111% | viability, T/C [29]: 91.9% | viability, T/C [30]: 97.4% | viability, T/C [9]: 95.5% | viability, T/C [10]: 102% | viability, T/C (second compound 0.1 µM, first compound 0.000316 µM): 105% | viability, T/C (second compound 0.1 µM, first compound 0.001 µM): 112% | viability, T/C [31]: 121% | viability, T/C [32]: 94.9% | viability, T/C [13]: 109% | viability, T/C [14]: 90% | viability, T/C (second compound 0.316 µM, first compound 0.000316 µM): 77.2% | viability, T/C (second compound 0.316 µM, first compound 0.001 µM): 81.5% | viability, T/C [33]: 118% | viability, T/C [34]: 81.4% | viability, T/C [17]: 92.1% | viability, T/C [18]: 102% | viability, T/C (second compound 1 µM, first compound 0.000316 µM): 82.9% | viability, T/C (second compound 1 µM, first compound 0.001 µM): 101% | viability, T/C [35]: 115% | viability, T/C [36]: 81.3% | viability, T/C [21]: 85.8% | viability, T/C [22]: 80.3%

Source: PubChem BioAssay AID1963421 (Molecular Pharmacology Branch, DTP, NCI, 2024)
